Measurements: patent US20250313563A1, “GLYCOGEN SYNTHASE KINASE 3 INHIBITORS AND USES THEREOF” (The Broad Institute, Inc., priority 2022, published 2025)
Like-named read-outs stand apart in the source and are kept apart here. Blank lines part the entries; values can stand above or below the molecule they belong to.

Tests used:
[1] = biological target: GSK3α (GST-full length GSK3α) (Homo sapiens (Human), UniProt P49840); experiment: GSK3α TR-FRET kinase assay; assay type: biochemical
Outline: (§1)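 1 nM GST-GSK3α/β + cpd, 30 min preinc; add 200 nM biotin-pS645 GS(631-650) peptide + ATP (α 4 μM / β 2 μM, or 1 mM); 100 min RT, 50 mM Tris pH 7.5, 20 mM MgCl2, 1% DMSO; EDTA stop; SA-d2/Tb-pSer641 Ab 60 min; 665/615 ratio → IC50.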

[2] = biological target: GSK3b (GST-full length GSK3b) (Homo sapiens (Human), UniProt P49841); experiment: GSK3b TR-FRET kinase assay; assay type: biochemical
Outline: as §1

[3] = 1 nM GSK3α, 4 μM ATP, 30 minute preincubation, geometric mean, read-out: GSK3-A TR-FRET BIOCHEMICAL (TR-FRET), GMean, IC50
[4] = 1 nM GSK3b, 2 μM ATP, 30 minute preincubation, geometric mean, read-out: GSK3-B TR-FRET BIOCHEMICAL (TR-FRET), GMean, IC50
[5] = read-out: GSK3-A (TR-FRET 1 mM ATP), GMean, IC50, 1 mM ATP, geometric mean
[6] = read-out: GSK3-B (TR-FRET 1 mM ATP), GMean, IC50, 1 mM ATP, geometric mean
[7] = 1 nM GSK3α, 4 μM ATP, 30 minute preincubation, Table 16, read-out: GSK3-A TR-FRET BIOCHEMICAL (TR-FRET), IC50
[8] = 1 nM GSK3b, 2 μM ATP, 30 minute preincubation, Table 16, read-out: GSK3-B TR-FRET BIOCHEMICAL (TR-FRET), IC50
[9] = 1 nM GSK3α, 4 μM ATP, 30 minute preincubation, Table 16, read-out: GSK3-A TR-FRET BIOCHEMICAL (TR-FRET)
[10] = 1 nM GSK3b, 2 μM ATP, 30 minute preincubation, Table 16, read-out: GSK3-B TR-FRET BIOCHEMICAL (TR-FRET)

GSK3b (GST-full length GSK3b), sequence (P49841 whole entry): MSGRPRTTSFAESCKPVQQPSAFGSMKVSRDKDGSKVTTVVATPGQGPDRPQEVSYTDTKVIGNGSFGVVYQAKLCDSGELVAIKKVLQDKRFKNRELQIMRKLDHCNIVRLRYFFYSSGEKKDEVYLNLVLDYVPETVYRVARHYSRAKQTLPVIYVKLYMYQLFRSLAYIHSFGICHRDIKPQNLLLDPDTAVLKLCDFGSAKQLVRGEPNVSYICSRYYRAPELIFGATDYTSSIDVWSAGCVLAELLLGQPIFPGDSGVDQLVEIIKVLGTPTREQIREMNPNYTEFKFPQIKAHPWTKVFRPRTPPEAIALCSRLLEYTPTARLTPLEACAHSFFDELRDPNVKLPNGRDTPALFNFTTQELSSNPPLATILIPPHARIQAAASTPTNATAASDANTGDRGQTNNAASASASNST
GSK3α (GST-full length GSK3α), sequence (P49840 whole entry): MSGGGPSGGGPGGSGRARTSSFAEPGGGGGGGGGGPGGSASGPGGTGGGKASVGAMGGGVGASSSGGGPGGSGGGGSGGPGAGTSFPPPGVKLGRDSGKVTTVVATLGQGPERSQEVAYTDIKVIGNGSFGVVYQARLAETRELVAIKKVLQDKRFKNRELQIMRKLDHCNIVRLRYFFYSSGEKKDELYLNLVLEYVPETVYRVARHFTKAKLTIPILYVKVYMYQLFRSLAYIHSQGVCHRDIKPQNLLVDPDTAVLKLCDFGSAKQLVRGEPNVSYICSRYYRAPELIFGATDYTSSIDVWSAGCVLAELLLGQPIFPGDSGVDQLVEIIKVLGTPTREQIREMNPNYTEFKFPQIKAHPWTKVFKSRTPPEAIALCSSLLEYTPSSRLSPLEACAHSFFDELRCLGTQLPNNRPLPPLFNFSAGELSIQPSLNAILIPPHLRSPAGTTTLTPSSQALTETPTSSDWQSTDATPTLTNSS

IC50 [1, 7]: 1 to 5 µM
IC50 [2, 8]: > 5 µM
SMILES: CC[C@@]1(c2cccc(S(=O)(=O)C3CC3)c2)C2=C(CC(C)(C)N(C)C2=O)Nc2n[nH]cc21 [Compound 949184]

IC50 [1, 7]: > 5 µM
IC50 [2, 8]: > 5 µM
SMILES: CC[C@@]1(c2cccc(-c3cnn4ccncc34)c2)C2=C(CC(C)(C)NC2=O)Nc2n[nH]cc21 [Compound 949263]

IC50 [1, 7]: ≤ 0.1 µM
IC50 [2, 8]: 0.1 to 1 µM
SMILES: CCC1(c2cccc(-c3cn(C)nc3C(F)(F)F)c2)C2=C(CC(C)(C)NC2=O)Nc2n[nH]cc21 (centres unmarked) [Compound 949266]

IC50 [1, 9]: 1 to 5 µM
IC50 [2, 10]: > 5 µM
SMILES: CCC1(c2cccc(C(F)(F)C(F)(F)F)c2)C2=C(CC(C)(C)CC2=O)Nc2n[nH]cc21 (centres unmarked) [Compound 949268]

IC50 [1, 7]: 0.1 to 1 µM
IC50 [2, 8]: > 5 µM
SMILES: CC[C@]1(c2cccc(C(F)(F)F)c2)C2=C(CCN(c3cnn(C)c3)C2=O)Nc2n[nH]cc21 [Compound 949271]

IC50 [1, 9]: 0.1 to 1 µM
IC50 [2, 10]: 0.1 to 1 µM
SMILES: Cc1cnccc1[C@H]1CC[C@@]2(CC1)C1=C(CC(C)(C)CC1=O)Nc1n[nH]cc12 [Compound 949318]

IC50 [1, 9]: ≤ 0.1 µM
IC50 [2, 10]: ≤ 0.1 µM
SMILES: Cc1cnccc1[C@H]1CC[C@]2(CC1)C1=C(CC(C)(C)CC1=O)Nc1n[nH]cc12 [Compound 949319]

IC50 [1, 9]: 0.1 to 1 µM
IC50 [2, 10]: 1 to 5 µM
SMILES: CC1(C)CC(=O)C2=C(C1)Nc1n[nH]cc1[C@]21CC[C@@H](c2ccncc2)CC1 [Compound 949320]

IC50 [1, 9]: ≤ 0.1 µM
IC50 [2, 10]: ≤ 0.1 µM
SMILES: CC1(C)CC(=O)C2=C(C1)Nc1n[nH]cc1[C@]21CC[C@H](c2ccncc2)CC1 [Compound 949321]

IC50 [1, 9]: 0.1 to 1 µM
IC50 [2, 10]: 1 to 5 µM
SMILES: Cn1cc([C@H]2CC[C@@]3(CC2)C2=C(CC(C)(C)CC2=O)Nc2n[nH]cc23)cn1 [Compound 949322]

IC50 [1, 7]: 1 to 5 µM
IC50 [2, 8]: > 5 µM
SMILES: Cn1cc([C@H]2CC[C@]3(CC2)C2=C(CC(C)(C)CC2=O)Nc2n[nH]cc23)cn1 [Compound 949323]

Second part, the molecule before the results:

SMILES: CC[C@]1(c2cccc(N3CCCCC3)c2)C2=C(CC(C)(C)NC2=O)Nc2n[nH]c(C(F)(F)F)c21 [Compound 949178]
IC50 [1, 3]: 0.1 to 1 µM
IC50 [2, 4]: 1 to 5 µM

SMILES: CC[C@]1(c2cccc(N(C)c3ncccn3)c2)C2=C(CC(C)(C)NC2=O)Nc2n[nH]cc21 [Compound 949179]
IC50 [1, 3]: 0.1 to 1 µM
IC50 [2, 4]: > 5 µM

SMILES: CCC1(c2cccc(N(C)c3ncccn3)c2)C2=C(CC(C)(C)NC2=O)Nc2n[nH]c(C(F)(F)F)c21 (centres unmarked) [Compound 949181]
IC50 [1, 5]: ≤ 0.1 µM
IC50 [2, 6]: 0.1 to 1 µM

SMILES: CCC1(c2cccc(N(C)c3ncccn3)c2)C2=C(CC(C)(C)NC2=O)Nc2n[nH]c(C)c21 (centres unmarked) [Compound 949182]
IC50 [1, 3]: ≤ 0.1 µM
IC50 [2, 4]: ≤ 0.1 µM

SMILES: CCC1(c2cccc(N3CCCCC3)c2)C2=C(CC(C)(C)NC2=O)Nc2n[nH]c(C(F)(F)F)c21 (centres unmarked) [Compound 949183]
IC50 [1, 3]: ≤ 0.1 µM
IC50 [1, 5]: ≤ 0.1 µM
IC50 [2, 4]: ≤ 0.1 µM
IC50 [2, 6]: 0.1 to 1 µM

SMILES: CC[C@@]1(c2cccc(-c3cn(C)nc3C)c2)C2=C(CC(C)(C)NC2=O)Nc2n[nH]c(F)c21 [Compound 949185]
IC50 [1, 7]: ≤ 0.1 µM
IC50 [1, 5]: ≤ 0.1 µM
IC50 [2, 8]: ≤ 0.1 µM
IC50 [2, 6]: 1 to 5 µM

SMILES: CC[C@@]1(c2cccc(S(=O)(=O)CC3CC3)c2)C2=C(CC(C)(C)NC2=O)Nc2n[nH]c(C(F)(F)F)c21 [Compound 949186]
IC50 [1, 7]: 0.1 to 1 µM
IC50 [2, 8]: 0.1 to 1 µM

SMILES: CC[C@@]1(c2cccc(-c3cnn(-c4ccccn4)c3)c2)C2=C(CC(C)(C)NC2=O)Nc2n[nH]cc21 [Compound 949264]
IC50 [1, 7]: > 5 µM
IC50 [2, 8]: > 5 µM

SMILES: CCC1(c2cccc(C(F)(F)F)c2)C2=C(CCN(c3cnn(C)c3)C2=O)Nc2n[nH]cc21 (centres unmarked) [Compound 949270]
IC50 [1, 7]: ≤ 0.1 µM
IC50 [2, 8]: 0.1 to 1 µM

SMILES: CCC1(c2cccc(C(F)(F)F)c2)C2=C(CCN(c3ccccn3)C2=O)Nc2n[nH]cc21 (centres unmarked) [Compound 949310]
IC50 [1, 7]: ≤ 0.1 µM
IC50 [1, 5]: 0.1 to 1 µM
IC50 [2, 8]: 0.1 to 1 µM
IC50 [2, 6]: > 5 µM

SMILES: CCC1(c2cccc(-c3ccncc3F)c2)C2=C(CC(C)(C)NC2=O)Nc2n[nH]c(Cl)c21 (centres unmarked) [Compound 949324]
IC50 [1, 7]: ≤ 0.1 µM
IC50 [1, 5]: 0.1 to 1 µM
IC50 [2, 8]: ≤ 0.1 µM
IC50 [2, 6]: 1 to 5 µM

SMILES: CC[C@]1(c2cccc(OC)c2)C2=C(CC(C)(C)NC2=O)Nc2n[nH]c(C)c21 [Compound 949328]
IC50 [1, 7]: 1 to 5 µM
IC50 [2, 8]: > 5 µM

SMILES: CC[C@]1(c2cccc(-c3cn(C)nc3C)c2)C2=C(CC(C)(C)NC2=O)Nc2n[nH]c(Cl)c21 [Compound 949329]
IC50 [1, 7]: 1 to 5 µM
IC50 [2, 8]: > 5 µM
